“And” between values parts separate entries of the source, which are not always exact repeats. Identical values can stand only once.
Experiments:
TORC1 = target: T1, TORC1 (Saccharomyces cerevisiae, UniProt P35169); assay: MST binding affinity assays with fluorescent TORC1 (GFP–Tor1)
T1 construct: made in house; host or cells: S. cerevisiae strain NIC005 ([RL170-2c] LEU2:GFP-TOR1)
Experimental: The MST experiments were performed using a Monolith NT.115 (Nanotemper Technologies). Purification of TORC1 containing the N-terminally GFP-tagged Tor1 subunit was carried out as described previously. For the protein–protein interaction experiments, GFP–Tor1-containing TORC1 (7.5 nM) was mixed with a series of twofold dilutions (a total of 16 samples) of Acc1 (highest concentration, 80 nM) or Fas1 (highest concentration, 20 nM) purified from yeast through TAP-tag immuno-enrichment with rabbit IgG-coated magnetic beads and subsequent TEV cleavage in elution buffer (50 mM HEPES NaOH pH 7.5 and 150 mM NaCl) for 1 h at 18 °C. The samples were loaded into Monolith NT.115 capillaries and MST measurements were performed using 80% laser power and medium MST power setting at 30 °C. For the small molecule–protein interaction experiments, GFP–Tor1-containing TORC1 (7.5 nM) was mixed with a series of twofold dilutions (a total of 16 samples) of Mal-CoA (M4263, Sigma-Aldrich; highest concentration, 5 mM) dissolved in 50 mM HEPES pH 7.5. The samples were loaded into Monolith NT.115 capillaries and MST measurements were performed using 80% laser power and medium MST power setting at 30 °C. The experiments were performed in triplicate and data were fitted using the Kd model of the MO.Affinity Analysis software (Nanotemper Technologies). The signal-to-noise ratio represents the response amplitude divided by the noise of the measurement. The Kd value was obtained by plotting the bound fraction against the log-transformed ligand concentration.

Src = target: T2, Src (Homo sapiens, UniProt P12931); assay: Mammalian Src kinase activity assay (IVK, Glo1 substrate); type: biochemical; conditions: for In vitro kinase assay Src, p-Glo(Y316)/Glo, Mean: 0 mM = 1; for In vitro kinase assay Src, p-Glo(Y316)/Glo: Replicates 1-3, 0 mM = 1 (Ext. Fig. 10g)
T2 construct: purchased ProQinase 0200-0000-1
Experimental: In vitro assays for phosphorylation of Glo1 by Src were performed as described previously. […] The phosphorylation reaction was stopped by the addition of 2×Laemmli buffer and boiling the samples for 5 min at 95 °C. The samples were run on SDS–PAGE gels and immunoblotted for Src-dependent phosphorylation of Glo1 at Y316 using a homemade antibody.

yeast cells = assay: Drop spot growth assays on rapamycin and/or cerulenin plates; type: cell-based, Saccharomyces cerevisiae; conditions: low / sublethal doses combined
Experimental: Yeast cells (Saccharomyces cerevisiae) were cultured in liquid SC medium (1.7 g l^−1 yeast nitrogen base (cat. no. 1545, CONDA), 5 g l^−1 ammonium sulfate (cat. no. 4808211, MP Biomedicals), 20 g l^−1 glucose (cat. no. 1422, AppliChem), 2 g l^−1 amino acid dropout –His (D9520, US Biological) and 35 mg l^−1 histidine (A1341, AppliChem) at 30 °C to the exponential growth phase, unless otherwise stated in the figure legends. All yeast strains used in this study are listed in Supplementary Table 1.

Snf1 (yeast AMPK) = assay: Snf1 activation in yeast cells, p-Snf1^T210/His immunoblot; type: cell-based, Saccharomyces cerevisiae; conditions: cerulenin 20 μM, 2 h, wt Ctrl = 1, Fig. 3h
[1] = tested on: total protein malonylation; assay: Lysine malonylation in yeast cells, Mal-K/Adh1 immunoblot; type: cell-based, Saccharomyces cerevisiae; conditions: cerulenin 20 μM, 2 h, wt Ctrl = 1, Fig. 3i
HEK293T cells = assay: OPP incorporation assay (de novo protein synthesis); type: cell-based, human; conditions: cerulenin 50 μM, 4 h
Experimental: An OPP incorporation assay was used to test for de novo protein synthesis. […] The cells were subsequently washed with DPBS, trypsinized and fixed with ice-cold 70% ethanol for 30 min at −20 °C, followed by three washes with PBS containing 0.5% Tween-20. […] The samples were run in a Guava easyCyte HT flow cytometer (Millipore) and analysed using FlowJo (v10).

[2] = tested on: Tor1 and Fas1 malonylation; assay: Malonylation of immunopurified HA-Tor1 and Fas1-HA (anti-Mal-K) from yeast cells; type: cell-based, Saccharomyces cerevisiae
Experimental: For the yeast co-immunoprecipitations experiments, cells were collected by filtration and immediately frozen in liquid nitrogen. […] Total cell extracts were recovered from the beads and cleared by centrifugation. At this stage, samples were taken for input analysis and denatured with a Laemmli-based sample buffer (350 mM Tris–HCl pH 6.8, 30% glycerol, 600 mM DTT, 10% SDS and 0.2 mg ml^−1 bromophenol blue). The cleared lysates (10–20 mg) were incubated for 2 h at 4 °C with magnetic beads pre-conjugated with anti-HA (cat. no. 88837, Pierce). The beads were then washed five times with high salt lysis buffer (50 mM Tris–HCl pH 7.5, 300 mM NaCl, 10% glycerol and 0.1% Nonidet P40) and eventually resuspended in 20 μl lysis buffer and 20 μl 2×Laemmli buffer.

T1 sequence (P35169 whole entry): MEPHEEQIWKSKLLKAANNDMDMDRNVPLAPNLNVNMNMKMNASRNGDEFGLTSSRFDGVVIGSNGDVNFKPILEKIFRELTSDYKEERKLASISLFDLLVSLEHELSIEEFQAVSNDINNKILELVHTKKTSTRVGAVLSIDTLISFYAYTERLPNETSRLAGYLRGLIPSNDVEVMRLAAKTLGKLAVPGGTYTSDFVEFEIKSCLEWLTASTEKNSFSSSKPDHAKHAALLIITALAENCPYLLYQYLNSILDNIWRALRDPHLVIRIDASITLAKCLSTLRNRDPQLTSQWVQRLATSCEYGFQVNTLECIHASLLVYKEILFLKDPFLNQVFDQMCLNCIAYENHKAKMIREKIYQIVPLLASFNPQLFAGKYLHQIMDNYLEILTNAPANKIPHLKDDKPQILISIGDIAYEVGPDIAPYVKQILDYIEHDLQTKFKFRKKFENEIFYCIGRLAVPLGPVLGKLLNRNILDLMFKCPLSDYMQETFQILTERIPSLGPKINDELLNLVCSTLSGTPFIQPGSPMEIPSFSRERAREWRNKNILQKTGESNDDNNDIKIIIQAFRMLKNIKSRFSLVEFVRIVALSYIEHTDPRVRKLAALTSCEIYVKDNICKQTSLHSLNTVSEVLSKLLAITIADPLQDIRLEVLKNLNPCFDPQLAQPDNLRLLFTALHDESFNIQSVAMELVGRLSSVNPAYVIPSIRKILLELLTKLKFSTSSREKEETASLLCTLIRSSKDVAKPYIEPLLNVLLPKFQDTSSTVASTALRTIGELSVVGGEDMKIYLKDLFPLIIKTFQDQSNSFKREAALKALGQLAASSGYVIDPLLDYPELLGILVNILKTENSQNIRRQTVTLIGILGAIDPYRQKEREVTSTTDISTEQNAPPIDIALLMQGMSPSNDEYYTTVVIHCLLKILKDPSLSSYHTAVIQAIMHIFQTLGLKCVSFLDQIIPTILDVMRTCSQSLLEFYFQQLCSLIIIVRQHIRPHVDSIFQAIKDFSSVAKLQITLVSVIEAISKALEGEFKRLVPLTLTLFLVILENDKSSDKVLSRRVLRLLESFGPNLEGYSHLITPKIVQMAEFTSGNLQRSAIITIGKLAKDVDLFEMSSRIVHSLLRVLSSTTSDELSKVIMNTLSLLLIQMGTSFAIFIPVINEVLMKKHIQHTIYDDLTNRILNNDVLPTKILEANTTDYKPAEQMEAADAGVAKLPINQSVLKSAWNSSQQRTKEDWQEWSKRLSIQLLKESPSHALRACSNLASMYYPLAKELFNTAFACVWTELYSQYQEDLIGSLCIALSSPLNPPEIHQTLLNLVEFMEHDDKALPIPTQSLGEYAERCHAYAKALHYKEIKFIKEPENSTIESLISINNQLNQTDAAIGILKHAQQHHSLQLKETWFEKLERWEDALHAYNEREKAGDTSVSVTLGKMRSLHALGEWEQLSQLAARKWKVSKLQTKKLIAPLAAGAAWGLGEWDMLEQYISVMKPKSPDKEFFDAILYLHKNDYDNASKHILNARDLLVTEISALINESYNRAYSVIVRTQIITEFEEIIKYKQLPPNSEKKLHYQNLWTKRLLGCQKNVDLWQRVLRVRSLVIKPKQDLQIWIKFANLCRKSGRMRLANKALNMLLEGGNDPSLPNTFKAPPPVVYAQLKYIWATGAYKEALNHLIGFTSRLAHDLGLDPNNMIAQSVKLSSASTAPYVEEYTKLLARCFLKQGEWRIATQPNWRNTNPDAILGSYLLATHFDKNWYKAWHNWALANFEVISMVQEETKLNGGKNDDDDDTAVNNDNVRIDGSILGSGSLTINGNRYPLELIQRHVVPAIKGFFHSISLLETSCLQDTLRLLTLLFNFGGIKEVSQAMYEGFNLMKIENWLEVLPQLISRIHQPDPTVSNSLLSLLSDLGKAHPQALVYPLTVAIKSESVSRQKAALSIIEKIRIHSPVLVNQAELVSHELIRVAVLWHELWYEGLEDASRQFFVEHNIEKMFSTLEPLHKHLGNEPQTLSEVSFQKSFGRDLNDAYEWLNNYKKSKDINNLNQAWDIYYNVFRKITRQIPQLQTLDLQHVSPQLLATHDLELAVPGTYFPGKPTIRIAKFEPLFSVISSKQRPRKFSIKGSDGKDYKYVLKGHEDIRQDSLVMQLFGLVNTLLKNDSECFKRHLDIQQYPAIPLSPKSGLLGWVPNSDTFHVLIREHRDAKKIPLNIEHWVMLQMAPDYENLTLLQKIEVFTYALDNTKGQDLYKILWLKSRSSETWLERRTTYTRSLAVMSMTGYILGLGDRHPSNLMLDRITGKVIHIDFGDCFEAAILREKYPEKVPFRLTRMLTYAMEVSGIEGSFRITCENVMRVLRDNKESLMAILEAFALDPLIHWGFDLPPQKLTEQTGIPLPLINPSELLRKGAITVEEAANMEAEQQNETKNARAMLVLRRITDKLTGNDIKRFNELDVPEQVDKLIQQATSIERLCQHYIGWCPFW
T1 sequence (Q08921 whole entry partner): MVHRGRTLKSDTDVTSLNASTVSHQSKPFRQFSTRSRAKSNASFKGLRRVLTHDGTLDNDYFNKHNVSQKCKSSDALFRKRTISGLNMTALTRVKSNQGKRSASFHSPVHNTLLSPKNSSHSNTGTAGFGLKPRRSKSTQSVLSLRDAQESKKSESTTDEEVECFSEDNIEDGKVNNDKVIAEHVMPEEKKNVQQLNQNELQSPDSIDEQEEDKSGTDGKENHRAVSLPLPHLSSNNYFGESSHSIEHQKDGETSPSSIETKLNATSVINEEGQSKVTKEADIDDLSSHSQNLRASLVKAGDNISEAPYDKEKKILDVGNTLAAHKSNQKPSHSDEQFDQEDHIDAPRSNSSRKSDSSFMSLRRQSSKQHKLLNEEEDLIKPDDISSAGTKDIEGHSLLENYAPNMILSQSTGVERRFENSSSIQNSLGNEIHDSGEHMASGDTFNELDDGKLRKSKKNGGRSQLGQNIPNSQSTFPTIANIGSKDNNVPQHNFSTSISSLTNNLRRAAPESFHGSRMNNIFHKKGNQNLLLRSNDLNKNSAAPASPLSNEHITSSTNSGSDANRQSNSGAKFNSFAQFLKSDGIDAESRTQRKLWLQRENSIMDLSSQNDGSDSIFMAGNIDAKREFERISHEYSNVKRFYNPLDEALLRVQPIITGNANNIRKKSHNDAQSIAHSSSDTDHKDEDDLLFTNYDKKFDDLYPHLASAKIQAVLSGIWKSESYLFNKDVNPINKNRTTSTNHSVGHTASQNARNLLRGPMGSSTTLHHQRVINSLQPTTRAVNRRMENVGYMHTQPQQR
T1 sequence (P38873 whole entry partner): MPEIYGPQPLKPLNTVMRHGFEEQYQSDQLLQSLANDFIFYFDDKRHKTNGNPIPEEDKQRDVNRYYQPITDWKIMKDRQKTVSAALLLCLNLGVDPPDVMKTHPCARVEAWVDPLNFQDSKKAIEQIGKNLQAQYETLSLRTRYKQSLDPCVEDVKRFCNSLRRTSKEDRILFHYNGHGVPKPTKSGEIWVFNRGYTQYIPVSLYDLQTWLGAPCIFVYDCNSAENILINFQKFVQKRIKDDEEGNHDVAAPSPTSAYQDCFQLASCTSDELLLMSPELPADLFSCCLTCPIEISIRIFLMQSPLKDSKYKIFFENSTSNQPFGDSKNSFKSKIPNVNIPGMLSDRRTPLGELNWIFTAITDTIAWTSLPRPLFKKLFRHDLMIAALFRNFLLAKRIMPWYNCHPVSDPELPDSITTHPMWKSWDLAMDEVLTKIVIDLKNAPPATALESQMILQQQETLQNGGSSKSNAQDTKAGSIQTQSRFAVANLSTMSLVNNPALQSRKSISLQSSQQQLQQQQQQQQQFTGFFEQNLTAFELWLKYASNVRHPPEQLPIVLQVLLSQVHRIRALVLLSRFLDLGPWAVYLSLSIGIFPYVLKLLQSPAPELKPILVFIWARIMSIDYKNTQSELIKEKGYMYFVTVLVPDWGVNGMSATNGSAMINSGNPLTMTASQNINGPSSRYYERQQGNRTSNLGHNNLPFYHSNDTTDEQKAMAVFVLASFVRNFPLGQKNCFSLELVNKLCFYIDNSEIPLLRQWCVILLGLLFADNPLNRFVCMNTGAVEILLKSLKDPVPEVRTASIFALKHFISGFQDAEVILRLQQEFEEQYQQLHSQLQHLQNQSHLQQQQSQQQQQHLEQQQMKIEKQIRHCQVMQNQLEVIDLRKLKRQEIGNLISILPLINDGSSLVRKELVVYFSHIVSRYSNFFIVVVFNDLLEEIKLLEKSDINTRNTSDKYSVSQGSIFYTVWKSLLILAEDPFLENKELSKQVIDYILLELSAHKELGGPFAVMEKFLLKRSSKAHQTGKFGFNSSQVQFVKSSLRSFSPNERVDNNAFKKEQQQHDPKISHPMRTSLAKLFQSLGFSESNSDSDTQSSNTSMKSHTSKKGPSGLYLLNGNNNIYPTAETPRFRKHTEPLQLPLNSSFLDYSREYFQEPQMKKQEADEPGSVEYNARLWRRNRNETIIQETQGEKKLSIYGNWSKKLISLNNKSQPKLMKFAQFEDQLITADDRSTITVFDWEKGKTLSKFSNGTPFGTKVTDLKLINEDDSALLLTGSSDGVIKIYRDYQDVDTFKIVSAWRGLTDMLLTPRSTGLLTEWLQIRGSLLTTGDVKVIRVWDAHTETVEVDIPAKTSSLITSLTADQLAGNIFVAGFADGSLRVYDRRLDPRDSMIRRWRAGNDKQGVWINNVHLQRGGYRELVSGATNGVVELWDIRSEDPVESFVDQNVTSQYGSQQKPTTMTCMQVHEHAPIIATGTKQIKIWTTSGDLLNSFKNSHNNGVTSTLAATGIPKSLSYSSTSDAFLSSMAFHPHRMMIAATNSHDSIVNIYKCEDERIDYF
T1 sequence (P41318 whole entry partner): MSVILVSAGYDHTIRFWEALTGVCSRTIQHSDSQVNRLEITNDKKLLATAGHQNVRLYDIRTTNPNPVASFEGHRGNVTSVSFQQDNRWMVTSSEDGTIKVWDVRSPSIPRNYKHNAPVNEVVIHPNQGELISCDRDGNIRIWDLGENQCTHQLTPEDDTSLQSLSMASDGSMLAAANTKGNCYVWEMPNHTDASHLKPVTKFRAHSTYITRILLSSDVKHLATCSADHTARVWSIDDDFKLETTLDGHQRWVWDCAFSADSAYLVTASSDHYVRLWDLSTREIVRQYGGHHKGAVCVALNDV

## CC(C)(COP(=O)(O)OP(=O)(O)OCC1OC(n2cnc3c(N)ncnc32)C(O)C1OP(=O)(O)O)C(O)C(=O)NCCC(=O)NCCSC(=O)CC(=O)O (centres unmarked) [Mal-CoA, malonyl-CoA]
TORC1; Mal-CoA 1.52588e-7 M
  Fraction bound transformed: -0.1669
  Mean Fnorm: 842.758 ‰
TORC1; Mal-CoA 1.52588e-7 M, Replicates 1-3 (ED Fig. 10a)
  Fnorm: 842.278 ‰ and 840.902 ‰ and 845.093 ‰
TORC1; Mal-CoA 3.05176e-7 M
  Fraction bound transformed: 0.1808
  Mean Fnorm: 838.674 ‰
TORC1; Mal-CoA 3.05176e-7 M, Replicates 1-2 (ED Fig. 10a)
  Fnorm: 836.322 ‰ and 841.026 ‰
TORC1; Mal-CoA 6.10352e-7 M
  Fraction bound transformed: -0.2372
  Mean Fnorm: 843.583 ‰
TORC1; Mal-CoA 6.10352e-7 M, Replicates 1-3 (ED Fig. 10a)
  Fnorm: 840.469 ‰ and 846.42 ‰ and 843.86 ‰
TORC1; Mal-CoA 1.2207e-6 M
  Fraction bound transformed: 0.2149
  Mean Fnorm: 838.273 ‰
TORC1; Mal-CoA 1.2207e-6 M, Replicates 1-3 (ED Fig. 10a)
  Fnorm: 837.823 ‰ and 838.78 ‰ and 838.217 ‰
TORC1; Mal-CoA 2.44141e-6 M
  Fraction bound transformed: 0.1801
  Mean Fnorm: 838.682 ‰
TORC1; Mal-CoA 2.44141e-6 M, Replicates 1-3 (ED Fig. 10a)
  Fnorm: 839.959 ‰ and 836.5 ‰ and 839.586 ‰
TORC1; Mal-CoA 4.88281e-6 M
  Fraction bound transformed: 0.2862
  Mean Fnorm: 837.436 ‰
TORC1; Mal-CoA 4.88281e-6 M, Replicates 1-3 (ED Fig. 10a)
  Fnorm: 839.798 ‰ and 836.387 ‰ and 836.122 ‰
TORC1; Mal-CoA 9.76563e-6 M
  Fraction bound transformed: 0.3923
  Mean Fnorm: 836.19 ‰
TORC1; Mal-CoA 9.76563e-6 M, Replicates 1-3 (ED Fig. 10a)
  Fnorm: 834.741 ‰ and 836.18 ‰ and 837.648 ‰
TORC1; Mal-CoA 1.95313e-5 M
  Fraction bound transformed: 0.495
  Mean Fnorm: 834.984 ‰
TORC1; Mal-CoA 1.95313e-5 M, Replicates 1-3 (ED Fig. 10a)
  Fnorm: 835.416 ‰ and 833.302 ‰ and 836.235 ‰
TORC1; Mal-CoA 3.90625e-5 M
  Fraction bound transformed: 0.697
  Mean Fnorm: 832.611 ‰
TORC1; Mal-CoA 3.90625e-5 M, Replicates 1-3 (ED Fig. 10a)
  Fnorm: 833.941 ‰ and 832.342 ‰ and 831.55 ‰
TORC1; Mal-CoA 7.8125e-5 M
  Fraction bound transformed: 0.721
  Mean Fnorm: 832.33 ‰
TORC1; Mal-CoA 7.8125e-5 M, Replicates 2-3 (ED Fig. 10a)
  Fnorm: 830.576 ‰ and 834.083 ‰
TORC1; Mal-CoA 0.00015625 M
  Fraction bound transformed: 0.6458
  Mean Fnorm: 833.212 ‰
TORC1; Mal-CoA 0.00015625 M, Replicates 1-3 (ED Fig. 10a)
  Fnorm: 833.177 ‰ and 832.509 ‰ and 833.951 ‰
TORC1; Mal-CoA 0.0003125 M
  Fraction bound transformed: 0.8154
  Mean Fnorm: 831.221 ‰
TORC1; Mal-CoA 0.0003125 M, Replicates 1-3 (ED Fig. 10a)
  Fnorm: 828.879 ‰ and 833.898 ‰ and 830.884 ‰
TORC1; Mal-CoA 0.00125 M
  Fraction bound transformed: 0.8761
  Mean Fnorm: 830.508 ‰
TORC1; Mal-CoA 0.00125 M, Replicates 1-3 (ED Fig. 10a)
  Fnorm: 830.373 ‰ and 829.245 ‰ and 831.906 ‰
TORC1; Mal-CoA 0.0025 M
  Fraction bound transformed: 1.1671
  Mean Fnorm: 827.09 ‰
TORC1; Mal-CoA 0.0025 M, Replicates 1-3 (ED Fig. 10a)
  Fnorm: 828.614 ‰ and 826.728 ‰ and 825.93 ‰
TORC1; Mal-CoA 0.005 M
  Fraction bound transformed: 1.112
  Mean Fnorm: 827.742 ‰
TORC1; Mal-CoA 0.005 M, Replicates 1-3 (ED Fig. 10a)
  Fnorm: 831.215 ‰ and 831.366 ‰ and 820.645 ‰
TORC1; Mal-CoA […]
  Fraction bound transformed: 1.135
  Mean Fnorm: 827.462 ‰
TORC1; purified yeast TORC1 (GFP–Tor1) 7.5 nM, 30 °C, mean ± s.d., n = 3, read-out: Kd (binding of Mal-CoA to TORC1, MST)
  Kd: 19.3 µM
Src
  IC50: 3040 µM
Src; Mal-CoA 0.1 mM
  In vitro kinase assay Src, p-Glo(Y316)/Glo, Mean: 0.9108
  In vitro kinase assay Src, p-Glo(Y316)/Glo: 1.011 and 0.7856 and 0.936
Src; Mal-CoA 0.5 mM
  In vitro kinase assay Src, p-Glo(Y316)/Glo, Mean: 0.93
  In vitro kinase assay Src, p-Glo(Y316)/Glo: 1.127 and 0.8462 and 0.8162
Src; Mal-CoA 1 mM
  In vitro kinase assay Src, p-Glo(Y316)/Glo, Mean: 0.7653
  In vitro kinase assay Src, p-Glo(Y316)/Glo: 0.7803 and 0.7329 and 0.7827
Src; Mal-CoA 2.5 mM
  In vitro kinase assay Src, p-Glo(Y316)/Glo, Mean: 0.5664
  In vitro kinase assay Src, p-Glo(Y316)/Glo: 0.5574 and 0.682 and 0.4598
Src; Mal-CoA 5 mM
  In vitro kinase assay Src, p-Glo(Y316)/Glo, Mean: 0.4682
  In vitro kinase assay Src, p-Glo(Y316)/Glo: 0.5068 and 0.3824 and 0.5156

## C/C=C/C/C=C/CCC(=O)[C@H]1O[C@H]1C(N)=O [cerulenin]
Yeast cells
  combined effect of rapamycin and cerulenin on yeast growth: additive effect
Snf1 (yeast AMPK); acc1S1157A yeast
  p-Snf1(T210)/His (Snf1), Mean: 1.0013
Snf1 (yeast AMPK); wt yeast
  p-Snf1(T210)/His (Snf1), Mean: 1.229
[1]; acc1S1157A yeast
  Mal-K/Adh1, Mean: 8.735
[1]; wt yeast
  Mal-K/Adh1, Mean: 8.631
HEK293T cells; HEK293T, n = 6, Fig. 2l
  OPP assay (median fluorescence intensity of OPP Alexa Fluor 488, relative to DMSO), Mean: 0.7454
HEK293T cells
  de novo protein synthesis: decreased
[2]; cerulenin-treated (10 μM, 2 h) vs control
  lysine malonylation of immunopurified yeast Fas1: malonylation increasing further
[2]; control or cerulenin-treated (10 μM, 2 h)
  malonylation of immunopurified yeast Tor1: unable to detect malonylation
